Assay results: US12692232B2, “Indole carboxamide compound, preparation therefor and use thereof” (NANJING RUISHUNING MEDICAL TECHNOLOGY CO., LTD., priority 2021, dated 2026)

How the values were obtained:
[1] = tested on: H22 liver subcutaneous transplanted tumor; test: Mouse model of H22 liver subcutaneous transplanted tumor; format: in vivo
Method: The method was as follows:
Experimental procedure: H22 hepatoma cell suspension was adjusted to 1×10^7/mL after dilution and counting with normal saline, and 0.2 mL per mouse was inoculated on the back of the mice. After 24 hours, the mice were weighed and administered drug at a dose of 0.1 mL/10 g once a day, wherein the mice in the solvent control group and the treatment groups were administered 0.9% sodium chloride solution and the compound of the present invention, respectively, for 14 days, and the mice in the CTX group were injected intraperitoneally for 14 days. The mice were weighed after 14 days. The animals were executed and the tumor blocks were removed and weighed separately. The tumor inhibition rate was calculated according to the following formula: tumor inhibition rate (%)=(1−average tumor weight in a treatment group/average tumor weight in the solvent control group)×100%.

[2] = molecular target: T1, TRPC5 protein (Homo sapiens, UniProt Q9UL62); test: MST binding to TRPC5 protein
T1 sequence (Q9UL62 1-973): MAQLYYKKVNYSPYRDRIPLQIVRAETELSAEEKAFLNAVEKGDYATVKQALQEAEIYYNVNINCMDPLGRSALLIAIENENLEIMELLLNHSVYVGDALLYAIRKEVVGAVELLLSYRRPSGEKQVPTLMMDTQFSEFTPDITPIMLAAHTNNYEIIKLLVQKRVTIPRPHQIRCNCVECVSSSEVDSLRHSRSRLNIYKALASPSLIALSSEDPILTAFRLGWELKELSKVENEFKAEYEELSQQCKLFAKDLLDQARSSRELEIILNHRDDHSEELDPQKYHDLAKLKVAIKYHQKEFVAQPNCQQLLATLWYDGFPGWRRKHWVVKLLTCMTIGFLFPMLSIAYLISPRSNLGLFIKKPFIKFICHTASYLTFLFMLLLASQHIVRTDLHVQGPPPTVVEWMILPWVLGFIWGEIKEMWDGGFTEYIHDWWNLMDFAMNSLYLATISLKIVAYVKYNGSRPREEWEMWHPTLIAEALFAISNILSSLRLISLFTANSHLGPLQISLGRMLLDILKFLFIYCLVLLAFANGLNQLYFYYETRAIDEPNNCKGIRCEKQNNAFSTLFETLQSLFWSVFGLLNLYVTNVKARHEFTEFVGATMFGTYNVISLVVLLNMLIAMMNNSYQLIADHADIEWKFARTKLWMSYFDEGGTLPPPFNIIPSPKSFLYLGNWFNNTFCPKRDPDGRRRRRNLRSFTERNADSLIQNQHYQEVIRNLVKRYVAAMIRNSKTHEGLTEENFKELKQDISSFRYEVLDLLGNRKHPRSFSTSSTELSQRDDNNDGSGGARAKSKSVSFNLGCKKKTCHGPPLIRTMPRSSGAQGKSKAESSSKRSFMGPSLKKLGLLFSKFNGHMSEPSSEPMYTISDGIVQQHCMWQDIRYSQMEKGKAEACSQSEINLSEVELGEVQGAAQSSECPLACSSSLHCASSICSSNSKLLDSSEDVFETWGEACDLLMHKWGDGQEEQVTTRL
Method: Preparation and labelling of protein solution: TRPC6 protein dry powder (Alomone Labs, Israel) was prepared into a protein mother solution at a concentration of 10 μM using PBS-Buffer, and 35 μL of the protein stock solution was taken to the Buffer exchange A column, and centrifuged to obtain the Tris-removed protein. 34 μL Labelling Buffer was added to the Tris-removed protein according to the instructions of the Protein Fluorescent Labelling Kit (model L001). After mixing well, 3 μL of NT-647-NHS fluorescent dye was added and thus obtained mixture was incubated for 20 minutes. The protein-dye mixture was transferred to the purification B column, 300 μL of PBS-Buffer was added, and the target protein, i.e. fluorescent labelled protein TRPC6, was collected by centrifugation (with a final concentration of about 2 μM). 180 μL of target protein was mixed with 1620 μL of PBS-Buffer, and then 9 μl of Tween-20 were added thereto. […]
The binding ability of the compounds of the present invention (as exemplified by the compounds 1-1 and 2-1 obtained in Examples 1 and 3) for other TRPC proteins (e.g., TRPC1, TRPC3, TRPC4, TRPC5, and TRPC7) was determined using the microscale thermophoresis (MST) method. […]
The affinity of the compounds of the present invention with TRPC1, TRPC3, TRPC4, TRPC5 and TRPC7 proteins, respectively, was determined by the same method as in Example 5.

Structure (SMILES) | tumor inhibition rate ([1]; 25 mg/kg once a day 14 days) [%] | Kd for binding to TRPCS protein [2] | tumor inhibition rate ([1]; 50 mg/kg once a day 14 days) [%]
Cn1c(C(=O)NCCC(=O)O)cc2ccccc21 [3-[(1-methyl-1H-indole-2-carbonyl)amino]propionic acid, reference compound] | 52.8 | – | –
CC(=O)OCCCNC(=O)c1c(C=O)c2ccccc2n1C [compound 1-1, propyl 3-[(3-formyl-1-methyl-1H-indole-2-carbonyl)amino]acetate] | 60.5 | cannot be measured | 69.4
Cn1c(C(=O)NCCCOC(=O)c2ccccc2)c(C=O)c2ccccc21 [compound 2-1] | – | cannot be measured | –
